The record followed here is ChEMBL document CHEMBL4251650, “Design and synthesis of 2-(4,5,6,7-tetrahydrothienopyridin-2-yl)-benzoimidazole carboxamides as novel orally efficacious Poly(ADP-ribose)polymerase (PARP) inhibitors” (Eur J Med Chem, 2018).

Series [1] is described as follows: Permeability across apical to basolateral side in human Caco2 cells. The conditions noted are these: Caco-2, read-out: permeability. The format is ADME, cell-based.
A short description of series [2]: Solubility of the compound in pH 7 solution. The format is physicochemical.
The nature of series [3]: Solubility of the compound in pH 6.8 solution. The format is physicochemical.
Series [4] can be described thus: Solubility of the compound in pH 7.4 solution. The format is physicochemical.
Series [5] is described as follows: Intrinsic clearance in mouse liver microsomes. To be noted: read-out: CLH. The format is ADME, microsome. In general terms: Liver microsomes are a subcellular fraction often used to study metabolism.
Series [6] in a line: Intrinsic clearance in rat liver microsomes. The format is ADME, microsome. To be noted: read-out: CLH.
A short description of series [7]: Intrinsic clearance in human liver microsomes. To be noted: read-out: CLH. The format is ADME, microsome.
Series [8] is described as follows: Clearance in Sprague-Dawley rat at 5 mg/kg, iv administered as single dose by LC-MS/MS analysis. The format is ADME, organism-based. To be noted: in vivo.
Series [9] can be described thus: Half life in Sprague-Dawley rat at 5 mg/kg, iv administered as single dose by LC-MS/MS analysis. The format is ADME, organism-based. To be noted: in vivo.
Series [10] can be described thus: Volume of distribution at steady state in Sprague-Dawley rat at 5 mg/kg, iv administered as single dose by LC-MS/MS analysis. The format is ADME, organism-based. To be noted: in vivo, read-out: Vdss.
The nature of series [11]: AUC (0 to infinity) in Sprague-Dawley rat at 10 mg/kg, po administered as single dose by LC-MS/MS analysis. The format is ADME, organism-based. Also on record: dose 10 mg/kg, time infinity, route oral. The conditions noted are these: in vivo.
A short description of series [12]: Cmax in Sprague-Dawley rat at 10 mg/kg, po administered as single dose by LC-MS/MS analysis. Also on record: dose 10 mg/kg, route oral. To be noted: in vivo. The format is ADME, organism-based.
Series [13] in a line: Tmax in Sprague-Dawley rat at 10 mg/kg, po administered as single dose by LC-MS/MS analysis. The format is ADME, organism-based. The conditions noted are these: in vivo.
The nature of series [14]: Oral bioavailability in Sprague-Dawley rat at 10 mg/kg administered as single dose by LC-MS/MS analysis. To be noted: in vivo. The format is ADME, organism-based.

The solubility is the concentration that dissolves in the medium under given conditions. A lower solubility goes with a poorly soluble substance. As a reminder, the clearance is a measure of how efficiently the substance is removed, as volume per time. A high value points to efficient removal. One may read the half-life as how long it takes for the measured level to halve. High values mean slow loss, low ones fast loss. In general, AUC(0-inf) refers to the area under the concentration-time curve extrapolated to infinity. Low readings indicate less exposure, high ones more exposure. As usually defined, the Cmax is the highest concentration seen after dosing. Broadly, the Tmax is the time at which the peak concentration occurs. One may read the bioavailability as dose-corrected exposure relative to a reference, in per cent.

With `Cn1c(-c2cc3c(s2)CNCC3)nc2c(C(N)=O)cc(F)cc21`, the Papp A→B in series [1] was determined as 2.65 ×10⁻⁶ cm/s. Besides, the solubility in series [2], in [3] and in [4] was above 50 µM in each case. The microsomal CLint in [5] is 75 µL/min/mg; in series [6] it was 196 µL/min/mg; in series [7], 28 µL/min/mg.

Regarding `NC(=O)c1cc(F)cc2[nH]c(-c3cc4c(s3)CNCC4)nc12`, the Papp A→B in [1] amounted to 0.2 ×10⁻⁶ cm/s. Also, the solubility in series [2], in series [3] and in [4] was above 50 µM each time. The microsomal CLint in series [5] is 123 µL/min/mg; in series [6] it was 340 µL/min/mg; in series [7], 23 µL/min/mg.

For the compound `Cl.Cn1c(-c2cc3c(s2)CNCC3)nc2c(C(N)=O)cc(F)cc21`, the clearance in series [8] is 194 mL/min/kg. This compound gave a half-life in series [9] of 0.89 h. Moreover, in series [10], the Vd amounted to 13.2 L/kg. The AUC(0-inf) in series [11] amounted to 245 ng·h/mL. For the same compound, in [12], the peak concentration (Cmax) is 61.2 ng/mL. Further, the time of peak concentration (Tmax) in [13] was determined as 2.25 h. The compound further yielded a bioavailability in series [14] of 26%.
